Test results as given in patent US20030086974A1, “Odour regulation in hygiene products” (priority 2001, published 2003).

Key:
Type in all cases: physicochemical
[1] = Toluene inclusion (precipitation of the cyclodextrin-toluene complex); settings: 100 mg of sample dissolved in water, 20 μl toluene added to notice precipitation
Protocol: From 4.7 g β-cyclodextrin (dry), an oxidised cyclodextrin was prepared as described in Example 1, using 10 ml 2.0 M NaOCl solution, 150 mg NaBr and 80 mg 4-acetamido-TEMPO. The ratio acid/aldehyde was derived from the sodium hydroxide consumption and also experimentally determined. According to calculation, 6.3 mmol acid and 6.9 mmol aldehyde were produced. […] The reaction mixture was concentrated in vacuum to about 120 ml. […] Precipitation of the oxidised cyclodextrin-toluene complex started slowly i.e. after 10 minutes it was visible that a precipitate was formed. After 5 hours the process of precipitation formation seemed to be finished.
The same experiment was repeated with an acidified solution (pH 3). Here precipitation started immediately after mixing. The process was complete within one hour.
From 4.7 g β-cyclodextrin (dry) an oxidised cyclodextrin was prepared as described in Example 1, using 5 ml 2.0 M NaOCl solution, 150 mg NaBr and 4-acetamido-TEMPO. The ratio acid/aldehyde was derived from the sodium hydroxide consumption and also experimentally determined. According to calculation 2.2 mmol acid and 5.7 mmol aldehyde were produced. […] The reaction mixture was concentrated in vacuum to about 120 ml. […] Precipitation of the oxidised cyclodextrin-toluene complex started immediately and after one hour the process of precipitation formation appeared to be finished.

[2] = Adsorption of phenolphthalein by oxidised β-cyclodextrin (absorption at 553 nm); settings: sample 1 mg/ml in sodium carbonate buffer pH 10.3 mixed with 10 μl 0.1% phenolphthalein in ethanol
Protocol: Five grams of β-cyclodextrin (CAVAMAX® W7 from Wacker-CHEMIE GMBH) on dry weight basis was dissolved in 300 ml of demi-water, and 22.4 ml of a 0.032 M 4-acetamido TEMPO solution was; added. Subsequently, β-cyclodextrin was oxidised by addition of sodium hypochlorite. Batches were prepared with theoretically one, two and three anhydroglucose units fully oxidised per cyclodextrin molecule (average) per β-cyclodextrin molecule using sodium hypochlorite. The pH was kept constant during reaction by addition of 0.5 M NaOH, controlled by a pH stat (Metrohm). After completion of the oxidation, the aldehyde groups were reduced with sodium borohydride. The respective batches were concentrated in a rotary evaporator, and subsequently freeze-dried. The freeze-dried material was washed in a methanol/water mixture to remove salts and 4-acetamido-TEMPO. The batches were finally washed with acetone and dried in an oven at 50° C. The inclusion properties were investigated (see Table 1).

[3] = Menthone inclusion (precipitation of the complex); settings: 100 mg of sample dissolved in water, 20 μl menthone added to notice precipitation

Toluene inclusion ([1]; Table 1): Yes
Toluene inclusion ([1]; Table 2): Yes
Phenolphthalein Absorption (at γ = 553 nm) ([2]; Table 1): 0.025
Phenolphthalein Absorption (at γ = 553 nm) ([2]; Table 2, solution without cyclodextrin Abs. = 0.65): 0.025
Menthone inclusion ([3]; Table 1): Yes
Menthone inclusion ([3]; Table 2): Yes
SMILES: OC[C@H]1O[C@@H]2O[C@H]3[C@H](O)[C@@H](O)[C@@H](O[C@H]4[C@H](O)[C@@H](O)[C@@H](O[C@H]5[C@H](O)[C@@H](O)[C@@H](O[C@H]6[C@H](O)[C@@H](O)[C@@H](O[C@H]7[C@H](O)[C@@H](O)[C@@H](O[C@H]8[C@H](O)[C@@H](O)[C@@H](O[C@H]1[C@H](O)[C@H]2O)O[C@@H]8CO)O[C@@H]7CO)O[C@@H]6CO)O[C@@H]5CO)O[C@@H]4CO)O[C@@H]3CO [Example 0, β-cyclodextrin]
